In the SangsterLogP compilation:

Test: method code SF-HPLC, from DOI: 10.1016/0378-5173(85)90030-4

| SMILES | logP |
| --- | --- |
| CCCC(=O)OCn1cnc2c(cnn2COC(=O)CCC)c1=O | 1.82 |
| O=C(OCn1ncc2c(=O)[nH]cnc21)c1ccccc1 | 1.5 |
| CC(C)(C)C(=O)OCn1cc2c(=O)n(COC(=O)C(C)(C)C)cnc2n1 | 2.34 |
| CC(C)(C)C(=O)OCn1cc2c(=O)[nH]cnc2n1 | 0.79 |
| CCCC(=O)OCn1ncc2c(=O)[nH]cnc21 | 0.6 |
| CCCC(=O)OCn1cc2c(=O)[nH]cnc2n1 | 0.33 |
| CC(=O)OCn1ncc2c(=O)[nH]cnc21 | -0.35 |
| CC(C)(C)C(=O)OCn1cnc2c(cnn2COC(=O)C(C)(C)C)c1=O | 2.5 |
| CCN(CC)C(=O)CCC(=O)OCn1ncc2c(=O)[nH]cnc21 | -0.22 |
| CCOC(=O)OCn1ncc2c(=O)[nH]cnc21 | 0.21 |
| O=C(OCn1ncc2c(=O)[nH]cnc21)c1cccnc1 | 0.27 |
| CC(C)(C)C(=O)OCn1ncc2c(=O)[nH]cnc21 | 1.07 |
